Results as given in patent publication US11932601B2, “Immunoregulatory agents” (FLEXUS BIOSCIENCES, INC., priority 2014, dated 2024).

Target: T1, human IDO1 (Homo sapiens, UniProt P14902)
T1 construct: expressed in transfected cells
Assay: HEK293 cells stably expressing human IDO1, IDO inhibition assay (kynurenine, Ehrlich reagent, absorbance 490 nm)
Format: cell-based
Settings: 20 hours incubation, 500 nM reference standard = 100% inhibition, read-out: HEK Human IDO-1 Biological Activity (IC50)
Experimental: HEK293 cells were transfected with a pCDNA-based mammalian expression vector harboring human IDO1 cDNA (NM 002164.2) by electroporation. They were cultured in medium (DMEM with 10% FBS) containing 1 mg/ml G418 for two weeks. Clones of HEK293 cells that stably expressed human IDO1 protein were selected and expanded for IDO inhibition assay.
The human IDO1/HEK293 cells were seeded at 10,000 cells per 50 μL per well with RPMI/phenol red free media contains 10% FBS in a 384-well black wall clear bottom tissue culture plate (Matrix Technologies LLC) 100 nL of certain concentration of compound was then added to each well using ECHO liquid handling systems. The cells were incubated for 20 hours in 37° C. incubator with 5% CO2.
The compound treatments were stopped by adding Trichloroacetic Acid (Sigma-Aldrich) to a final concentration at 0.2%. The cell plate was further incubated at 50° C. for 30 minute. The equal volume supernatant […] and 0.2% (w/v) Ehrlich reagent (4-dimethylaminobenzaldehyde, Sigma-Aldrich) in glacial acetic acid were mixed in a new clear bottom 384-well plate. This plate was then incubated at room temperature for 30 minute. The absorbance at 490 nm was measured on Envision plate reader.

T1 sequence (P14902 whole entry): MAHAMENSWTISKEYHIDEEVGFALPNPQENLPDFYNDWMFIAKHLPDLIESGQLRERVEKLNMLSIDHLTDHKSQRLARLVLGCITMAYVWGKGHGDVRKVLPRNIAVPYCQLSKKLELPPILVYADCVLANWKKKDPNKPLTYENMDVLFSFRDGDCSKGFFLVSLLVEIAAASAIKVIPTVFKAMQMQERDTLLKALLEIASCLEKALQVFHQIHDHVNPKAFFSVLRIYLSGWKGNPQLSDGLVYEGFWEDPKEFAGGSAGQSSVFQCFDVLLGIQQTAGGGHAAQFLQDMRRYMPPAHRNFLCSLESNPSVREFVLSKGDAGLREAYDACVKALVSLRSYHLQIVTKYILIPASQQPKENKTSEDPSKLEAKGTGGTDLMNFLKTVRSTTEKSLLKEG

IC50 [µM] | Structure (SMILES)
> 0.25 | CC(C(=O)Nc1ccc(Cl)cc1)C1CCC(c2cccc(-c3ccccc3)c2)CC1 (single isomer, unassigned) [Example 317d, 2-(4-([1,1′-biphenyl]-3-yl)cyclohexyl)-N-(4-chlorophenyl) propanamide]
< 0.05 | Cc1nccc(O[C@H]2CC[C@H](C(C)C(=O)Nc3ccc(Cl)cc3)CC2)c1Cl (single isomer, unassigned) [Example 320, rac-2-((trans)-4-((3-chloro-2-methylpyridin-4-yl)oxy)cyclohexyl)-N-(4-chlorophenyl)propanamide]
< 0.25 | C[C@H](C(=O)Nc1ccc(Cl)cc1)[C@H]1CC[C@H](Oc2ccnc(C(F)(F)F)c2)CC1 (single isomer, unassigned) [Example 324a]
> 0.25 | C[C@@H](C(=O)Nc1ccc(Cl)cc1)[C@H]1CC[C@H](Oc2ccnc(C(F)(F)F)c2)CC1 (single isomer, unassigned) [Example 324b]
< 0.05 | COc1cc(C2CCC(C(C)C(=O)Nc3ccc(Cl)cc3)CC2)ccn1 (stereo not drawn) [Example 307a, Cis- or trans-N-(4-Chlorophenyl)-2-(4-(2-methoxypyridin-4-yl)cyclohexyl)propanamide]
< 0.05 | COc1cc(C2CCC(C(C)C(=O)Nc3ccc(Cl)cc3)CC2)ccn1 (stereo not drawn) [Example 307b, Cis- or trans-N-(4-Chlorophenyl)-2-(4-(2-methoxypyridin-4-yl)cyclohexyl)propanamide]
< 0.25 | CC(C(=O)Nc1ccc(Cl)cc1)C1CCC(c2cc(-c3ccc(F)cc3)ncn2)CC1 (stereo not shown) [Example 314a, N-(4-chlorophenyl)-2-(4-(6-(4-fluorophenyl)pyrimidin-4-yl)cyclohexyl) propanamide]
< 0.25 | Cc1nccc(C2CCC(C(C)C(=O)Nc3ccc(Cl)cc3)CC2)n1 (stereo not shown) [Example 319a, N-(4-chlorophenyl)-2-(4-(2-methylpyrimidin-4-yl)cyclohexyl) propanamide]
> 0.25 | Cc1nccc(C2CCC(C(C)C(=O)Nc3ccc(Cl)cc3)CC2)n1 (stereo not shown) [Example 319b, N-(4-chlorophenyl)-2-(4-(2-methylpyrimidin-4-yl)cyclohexyl) propanamide]
< 0.25 | CC1(CC(=O)Nc2ccc(Cl)cc2)CCN(c2ccnc(C(F)(F)F)c2)CC1 [Example 321, N-(4-Chlorophenyl)-2-(4-methyl-1-(2-(trifluoromethyl)pyridin-4-yl)piperidin-4-yl)acetamide]
> 0.25 | CC1(CC(=O)NC2(C)CCCCC2)CCN(c2ccnc(C(F)(F)F)c2)CC1 [Example 322, 2-(4-Methyl-1-(2-(trifluoromethyl)pyridin-4-yl)piperidin-4-yl)-N-(1-methylcyclohexyl)acetamide]

Structure (SMILES) | IC50 [µM]
CC(C(=O)Nc1ccc(Cl)cc1)C1CCC(c2ccncc2F)CC1 (single isomer, unassigned) [Example 318b, N-(4-chlorophenyl)-2-(4-(3-fluoropyridin-4-yl)cyclohexyl) propanamide] | < 0.05
CC(C(=O)Nc1ccc(Cl)cc1)C1CCC(c2ccncc2F)CC1 (single isomer, unassigned) [Example 318c, N-(4-chlorophenyl)-2-(4-(3-fluoropyridin-4-yl)cyclohexyl) propanamide] | > 0.25
CC(C(=O)Nc1ccc(Cl)cc1)C1CCC(c2ccncc2F)CC1 (single isomer, unassigned) [Example 318d, N-(4-chlorophenyl)-2-(4-(3-fluoropyridin-4-yl)cyclohexyl) propanamide] | < 0.25
CC(C(=O)Nc1ccc(Cl)cc1)C1CCC(c2ccncc2F)CC1 (single isomer, unassigned) [Example 318e, N-(4-chlorophenyl)-2-(4-(3-fluoropyridin-4-yl)cyclohexyl) propanamide] | < 0.05
CC(C(=O)Nc1ccc(Cl)cc1)C1CCC(c2ccncc2F)CC1 (stereo not shown) [Example 318a, N-(4-chlorophenyl)-2-(4-(3-fluoropyridin-4-yl)cyclohexyl) propanamide] | < 0.05
